Experimental data as given in ChEMBL document CHEMBL5512597, “Triazole hybrid compounds: A new frontier in malaria treatment” (Eur J Med Chem, 2023).
Converted amounts (≈) assume the structure as drawn.

Columns and labels:
[1] = test system: Plasmodium falciparum; assay: Antimalarial activity against Plasmodium falciparum; format: functional, organism-based
[2] = test system: Plasmodium falciparum; assay: Antimalarial activity against CQ-resistant Plasmodium falciparum K1; format: functional, organism-based
[3] = test system: Plasmodium falciparum; assay: Antimalarial activity against Plasmodium falciparum assessed as parasite growth inhibition incubated for 36 to 40 hrs by JSB staining based analysis; format: functional, organism-based
[4] = test system: Plasmodium falciparum; assay: Antimalarial activity against Plasmodium falciparum 3D7 at asexual erythrocytic stage assessed as parasite growth inhibition measured after 24 hrs by [3H]-hypoxanthine incorporation assay; format: functional, organism-based
[5] = Cytotoxicity against human erythrocytes; format: toxicity, cell-based, Erythrocyte
[6] = test system: Plasmodium falciparum; assay: Antimalarial activity against CQ-resistant Plasmodium falciparum Dd2; format: functional, organism-based
[7] = test system: Plasmodium falciparum; assay: Antimalarial activity against Plasmodium falciparum Dd2 infected in A+ human erythrocytes assessed as reduction in parasite growth incubated for 72 hrs by SYBR Green I staining based analysis; format: functional, organism-based; conditions: Dd2, Erythrocyte
[8] = test system: Plasmodium falciparum; assay: Antimalarial activity against Plasmodium falciparum 3D7 infected in A+ human erythrocytes assessed as reduction in parasite growth incubated for 72 hrs by SYBR Green I staining based analysis; format: functional, organism-based; conditions: 3D7, Erythrocyte
[9] = test system: Plasmodium falciparum; assay: Antimalarial activity against Plasmodium falciparum K1 infected in A+ human erythrocytes assessed as reduction in parasite growth incubated for 72 hrs by SYBR Green I staining based analysis; format: functional, organism-based; conditions: K1, Erythrocyte

CC1=C(C(=O)Nc2ccc(F)cc2)C(c2ccc(OCc3cn(Cc4ccccc4)nn3)cc2)n2c(nc3ccccc32)N1 (configuration not stated)
IC50 [1]: 990 nM

Cc1ccc(N2C(=O)[C@@H](Oc3ccccc3)[C@H]2c2ccc(OCc3cn(Cc4ccccc4)nn3)cc2)cc1
IC50 [2]: 15500 nM

O=c1cc(OCc2cn(-c3ccc(OCc4ccccc4[N+](=O)[O-])cc3)nn2)c2ccccc2o1
IC50 [3]: 0.98 µg/mL (≈ 2.08 µM)

Cc1cc(=O)oc2cc(OCc3cn(-c4ccc(S(N)(=O)=O)cc4)nn3)ccc12
IC50 [4]: 3640 nM

CC1=C(C(=O)Nc2ccccc2Cl)C(c2ccc(OCc3cn(Cc4ccccc4)nn3)cc2)n2c(nc3ccccc32)N1 (configuration not stated)
IC50 [1]: 2110 nM

Cc1c(-c2ccccc2)c2ccc(OCc3cn(-c4ccc(S(N)(=O)=O)cc4)nn3)cc2oc1=O
IC50 [4]: 3680 nM

O=[N+]([O-])c1ccc(Cn2cc(-c3ccccc3CO)nn2)cc1
CC50 [5]: 33.3 µg/mL (≈ 107 µM) | IC50 [6]: > 100 µg/mL

Cc1cc(C)nc(NS(=O)(=O)c2ccc(-n3cc(COc4cc5oc(=O)cc(C)c5cc4Cl)nn3)cc2)n1
IC50 [4]: 18100 nM

Cc1nc(-c2ccccc2)c(-c2ccccc2)c2cc(-c3cn(CCOC(=O)CCC(=O)O[C@@H]4O[C@@H]5O[C@]6(C)O[C@]57[C@@H](CC[C@@H](C)[C@@H]7C[C@H]6O)[C@H]4C)nn3)ccc12
EC50 [7]: 444 nM | EC50 [8]: 646 nM | EC50 [9]: 256 nM

O=[N+]([O-])c1cccc(Cn2cc(CO)nn2)c1
CC50 [5]: 87.4 µg/mL (≈ 373 µM) | IC50 [6]: 0.64 µg/mL (≈ 2.73 µM)

C[C@H]1[C@@H](OCc2cn(-c3ccnc4cc(Cl)ccc34)nn2)O[C@@H]2O[C@@]3(C)CC[C@H]4[C@H](C)CC[C@@H]1[C@@]24OO3
EC50 [8]: 9 nM

C[C@H]1[C@H](OC(=O)CCC(=O)OCc2cn(-c3ccnc4cc(Cl)ccc34)nn2)O[C@@H]2O[C@@]3(C)CC[C@H]4[C@H](C)CC[C@@H]1[C@@]24OO3
EC50 [8]: 5.3 nM

CC1=C(C(=O)Nc2ccc(Cl)cc2)C(c2ccc(OCc3cn(Cc4ccccc4)nn3)cc2)n2c(nc3ccccc32)N1 (configuration not stated)
IC50 [1]: 1690 nM

C[C@H]1[C@H](OC(=O)CCC(=O)OCCCCc2cn(-c3ccnc4cc(Cl)ccc34)nn2)O[C@@H]2O[C@@]3(C)CC[C@H]4[C@H](C)CC[C@@H]1[C@@]24OO3
EC50 [7]: 4.4 nM | EC50 [8]: 6.2 nM | EC50 [9]: 2.5 nM

Cc1cccc(COc2ccc(-n3cc(COc4cc(=O)oc5ccccc45)nn3)cc2)c1
IC50 [3]: 1.05 µg/mL (≈ 2.39 µM)

C[C@H]1[C@@H](OCCCCc2cn(-c3ccnc4cc(Cl)ccc34)nn2)O[C@@H]2O[C@@]3(C)CC[C@H]4[C@H](C)CC[C@@H]1[C@@]24OO3
EC50 [7]: 6.1 nM | EC50 [8]: 8.4 nM | EC50 [9]: 3.7 nM

O=C1[C@@H](Oc2ccccc2)[C@@H](c2ccc(OCc3cn(Cc4ccccc4)nn3)cc2)N1c1ccc(OCc2cn(Cc3ccccc3)nn2)cc1
IC50 [2]: < 970 nM

CC1=C(C(=O)Nc2ccccc2Cl)C(c2ccc(OCc3cn(Cc4ccccc4)nn3)cc2)n2ncnc2N1 (configuration not stated)
IC50 [1]: 1680 nM

COc1ccc(COC(=O)Cn2cc(CSc3ccc(Br)cc3)nn2)cc1
IC50 [1]: 178 nM

CC1=C(C(=O)Nc2ccc(C)cc2)C(c2ccc(OCc3cn(Cc4ccccc4)nn3)cc2)n2ncnc2N1 (configuration not stated)
IC50 [1]: 1840 nM

CC1=C(C(=O)Nc2ccccc2C)C(c2ccc(OCc3cn(Cc4ccccc4)nn3)cc2)n2c(nc3ccccc32)N1 (configuration not stated)
IC50 [1]: 1530 nM

O=C(Cn1cc(CSc2ccc(Br)cc2)nn1)OCc1ccc([N+](=O)[O-])cc1
IC50 [1]: 184 nM

CC1=C(C(=O)Nc2ccc(Cl)cc2)C(c2ccc(OCc3cn(Cc4ccccc4)nn3)cc2)n2ncnc2N1 (configuration not stated)
IC50 [1]: 1680 nM

O=c1ccc2ccc(OCc3cn(-c4ccc(OCc5ccc(F)cc5)cc4)nn3)cc2o1
IC50 [3]: 0.49 µg/mL (≈ 1.11 µM)

O=c1ccc2ccc(OCc3cn(-c4ccc(OCc5ccc(Br)cc5)cc4)nn3)cc2o1
IC50 [3]: 0.54 µg/mL (≈ 1.07 µM)

Cc1ccc(COc2ccc(-n3cc(COc4ccc5ccc(=O)oc5c4)nn3)cc2)cc1
IC50 [3]: 0.38 µg/mL (≈ 0.865 µM)

CC1=C(C(=O)Nc2ccc(F)cc2)C(c2ccc(OCc3cn(Cc4ccccc4)nn3)cc2)n2ncnc2N1 (configuration not stated)
IC50 [1]: 4360 nM

COc1ccc(N2C(=O)[C@@H](Oc3ccccc3)[C@H]2c2ccc(OCc3cn(Cc4ccccc4)nn3)cc2)cc1OC
IC50 [2]: 5140 nM

O=[N+]([O-])c1ccccc1Cn1cc(CO)nn1
CC50 [5]: 75.5 µg/mL (≈ 322 µM) | IC50 [6]: 0.65 µg/mL (≈ 2.78 µM)

O=[N+]([O-])c1ccc(Cn2cc(CO)nn2)cc1
CC50 [5]: > 100 µg/mL | IC50 [6]: 0.62 µg/mL (≈ 2.65 µM)

CC1=C(C(=O)Nc2cccc(Cl)c2)C(c2ccc(OCc3cn(Cc4ccccc4)nn3)cc2)n2c(nc3ccccc32)N1 (configuration not stated)
IC50 [1]: 3120 nM

O=c1ccc2ccc(OCc3cn(-c4ccc(S(=O)(=O)N5CCOCC5)cc4)nn3)cc2o1
IC50 [4]: > 85500 nM
